Assay results from patent US12077503B2, “Substituted cyclic amides and their use as herbicides” (FMC CORPORATION, priority 2015, dated 2024).

How the values were obtained:
Type in all cases: in vivo
[1] = tested on: Galium (catchweed bedstraw, Galium aparine); experiment: Test C postemergence; settings: scale 0 to 100, 0 no effect, 100 complete control
Outline: (§1)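 Visual rating, 0–100 scale (0 = no effect, 100 = complete control) versus controls, 13–15 d after treatment. Compounds in non-phytotoxic solvent plus surfactant; applied preemergence to seeds in loam/sand soil or postemergence to 1- to 4-leaf plants (2–18 cm) in peat/vermiculite medium; greenhouse-held.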

[2] = tested on: blackgrass (Alopecurus myosuroides); experiment: Test C postemergence; settings: scale 0 to 100, 0 no effect, 100 complete control
Outline: as §1

[3] = tested on: pigweed (Amaranthus retroflexus); experiment: Test C postemergence; settings: scale 0 to 100, 0 no effect, 100 complete control
Outline: as §1

[4] = tested on: oilseed rape (Brassica napus); experiment: Test C postemergence; settings: scale 0 to 100, 0 no effect, 100 complete control
Outline: as §1

[5] = tested on: crabgrass, large (large crabgrass, Digitaria sanguinalis); experiment: Test C postemergence; settings: scale 0 to 100, 0 no effect, 100 complete control
Outline: as §1

[6] = tested on: johnsongrass (Sorghum halepense); experiment: Test C preemergence; settings: for Plant response rating, Johnsongrass: scale 0 to 100, 0 no effect, 100 complete control
Outline: as §1

[7] = tested on: ryegrass, Italian (Italian ryegrass, Lolium multiflorum); experiment: Test C preemergence; settings: for Plant response rating, Ryegrass, Italian: scale 0 to 100, 0 no effect, 100 complete control
Outline: as §1

[8] = tested on: Galium (catchweed bedstraw, Galium aparine); experiment: Test C preemergence; settings: for Plant response rating, Galium: scale 0 to 100, 0 no effect, 100 complete control
Outline: as §1

[9] = tested on: blackgrass (Alopecurus myosuroides); experiment: Test C preemergence; settings: for Plant response rating, Blackgrass: scale 0 to 100, 0 no effect, 100 complete control
Outline: as §1

[10] = tested on: morningglory (Ipomoea coccinea); experiment: Test C preemergence; settings: for Plant response rating, Morningglory: scale 0 to 100, 0 no effect, 100 complete control
Outline: as §1

[11] = tested on: soybean (Glycine max); experiment: Test C preemergence; settings: for Plant response rating, Soybean: scale 0 to 100, 0 no effect, 100 complete control
Outline: as §1

[12] = tested on: oilseed rape (Brassica napus); experiment: Test C preemergence; settings: for Plant response rating, Oilseed Rape: scale 0 to 100, 0 no effect, 100 complete control
Outline: as §1

[13] = tested on: lambsquarters (Chenopodium album); experiment: Test C preemergence; settings: for Plant response rating, Lambsquarters: scale 0 to 100, 0 no effect, 100 complete control
Outline: as §1

[14] = tested on: crabgrass, large (large crabgrass, Digitaria sanguinalis); experiment: Test C preemergence; settings: for Plant response rating, Crabgrass, Large: scale 0 to 100, 0 no effect, 100 complete control
Outline: as §1

[15] = tested on: wheat (winter wheat, Triticum aestivum); experiment: Test C preemergence; settings: for Plant response rating, Wheat: scale 0 to 100, 0 no effect, 100 complete control
Outline: as §1

[16] = tested on: nutsedge, yellow (yellow nutsedge, Cyperus esculentus); experiment: Test C preemergence; settings: for Plant response rating, Nutsedge, Yellow: scale 0 to 100, 0 no effect, 100 complete control
Outline: as §1

[17] = tested on: waterhemp (common waterhemp, Amaranthus rudis); experiment: Test C preemergence; settings: for Plant response rating, Waterhemp: scale 0 to 100, 0 no effect, 100 complete control
Outline: as §1

[18] = tested on: barnyardgrass (Echinochloa crus-galli); experiment: Test C preemergence; settings: for Plant response rating, Barnyardgrass: scale 0 to 100, 0 no effect, 100 complete control
Outline: as §1

[19] = tested on: foxtail, giant (giant foxtail, Setaria faberii); experiment: Test C preemergence; settings: for Plant response rating, Foxtail, Giant: scale 0 to 100, 0 no effect, 100 complete control
Outline: as §1

[20] = tested on: velvetleaf (Abutilon theophrasti); experiment: Test C preemergence; settings: for Plant response rating, Velvetleaf: scale 0 to 100, 0 no effect, 100 complete control
Outline: as §1

[21] = tested on: corn (Zea mays); experiment: Test C preemergence; settings: for Plant response rating, Corn: scale 0 to 100, 0 no effect, 100 complete control
Outline: as §1

[22] = tested on: ragweed (common ragweed, Ambrosia elatior); experiment: Test C preemergence; settings: for Plant response rating, Ragweed: scale 0 to 100, 0 no effect, 100 complete control
Outline: as §1

[23] = 31 g ai/ha, 0 is no effect, 100 is complete control

CN1CC(c2ccc(F)c(F)c2)C(C(=O)Nc2ccccc2C(F)(F)F)C1=O (stereo not shown) [Compound 641]
98: Plant response rating (scale of 0 to 100), Crabgrass, Large [14, 23]
65: Plant response rating, Galium ([1]; 250 g ai/ha) | Plant response rating, Lambsquarters ([13]; 250 g ai/ha)
45: Plant response rating, Oilseed Rape ([4]; 62 g ai/ha) | Plant response rating, Oilseed Rape ([4]; 125 g ai/ha) | Plant response rating, Blackgrass ([9]; 62 g ai/ha) | Plant response rating, Waterhemp ([17]; 125 g ai/ha) | Plant response rating, Velvetleaf ([20]; 250 g ai/ha) | Plant response rating, Ragweed ([22]; 250 g ai/ha)
25: Plant response rating, Pigweed ([3]; 125 g ai/ha) | Plant response rating, Velvetleaf ([20]; 125 g ai/ha) | Plant response rating, Ragweed ([22]; 62 g ai/ha)
95: Plant response rating, Barnyardgrass ([18]; 250 g ai/ha) | Plant response rating, Foxtail, Giant ([19]; 250 g ai/ha)
90: Plant response rating, Galium ([8]; 125 g ai/ha) | Plant response rating, Oilseed Rape ([12]; 250 g ai/ha) | Plant response rating, Barnyardgrass ([18]; 62 g ai/ha) | Plant response rating, Barnyardgrass ([18]; 125 g ai/ha) | Plant response rating (scale of 0 to 100), Foxtail, Giant [19, 23] | Plant response rating, Foxtail, Giant ([19]; 62 g ai/ha) | Plant response rating, Foxtail, Giant ([19]; 125 g ai/ha)
30: Plant response rating, Galium ([8]; 62 g ai/ha) | Plant response rating, Blackgrass ([9]; 125 g ai/ha) | Plant response rating, Ragweed ([22]; 125 g ai/ha)
10: Plant response rating, Crabgrass, Large ([5]; 31 g ai/ha) | Plant response rating, Johnsongrass ([6]; 125 g ai/ha) | Plant response rating, Ryegrass, Italian ([7]; 62 g ai/ha) | Plant response rating, Soybean ([11]; 125 g ai/ha) | Plant response rating, Corn ([21]; 250 g ai/ha)
55: Plant response rating, Oilseed Rape ([4]; 250 g ai/ha)
80: Plant response rating (scale of 0 to 100), Oilseed Rape [12, 23]
70: Plant response rating, Crabgrass, Large ([5]; 125 g ai/ha) | Plant response rating, Crabgrass, Large ([5]; 250 g ai/ha) | Plant response rating, Ryegrass, Italian ([7]; 250 g ai/ha) | Plant response rating, Blackgrass ([9]; 250 g ai/ha) | Plant response rating, Wheat ([15]; 250 g ai/ha) | Plant response rating, Waterhemp ([17]; 250 g ai/ha)
85: Plant response rating, Galium ([8]; 250 g ai/ha) | Plant response rating, Oilseed Rape ([12]; 62 g ai/ha) | Plant response rating, Oilseed Rape ([12]; 125 g ai/ha) | Plant response rating (scale of 0 to 100), Barnyardgrass [18, 23]
20: Plant response rating, Oilseed Rape ([4]; 31 g ai/ha)
0: Plant response rating, Blackgrass ([2]; 31 g ai/ha) | Plant response rating, Blackgrass ([2]; 62 g ai/ha) | Plant response rating, Blackgrass ([2]; 125 g ai/ha) | Plant response rating, Blackgrass ([2]; 250 g ai/ha) | Plant response rating, Pigweed ([3]; 31 g ai/ha) | Plant response rating, Pigweed ([3]; 62 g ai/ha) | Plant response rating (scale of 0 to 100), Johnsongrass [6, 23] | Plant response rating, Johnsongrass ([6]; 62 g ai/ha) | Plant response rating (scale of 0 to 100), Ryegrass, Italian [7, 23] | Plant response rating (scale of 0 to 100), Galium [8, 23] | Plant response rating (scale of 0 to 100), Blackgrass [9, 23] | Plant response rating (scale of 0 to 100), Morningglory [10, 23] | Plant response rating, Morningglory ([10]; 62 g ai/ha) | Plant response rating, Morningglory ([10]; 125 g ai/ha) | Plant response rating, Morningglory ([10]; 250 g ai/ha) | Plant response rating (scale of 0 to 100), Soybean [11, 23] | Plant response rating, Soybean ([11]; 62 g ai/ha) | Plant response rating (scale of 0 to 100), Lambsquarters [13, 23] | Plant response rating, Wheat ([15]; 62 g ai/ha) | Plant response rating (scale of 0 to 100), Nutsedge, Yellow [16, 23] | Plant response rating, Nutsedge, Yellow ([16]; 62 g ai/ha) | Plant response rating, Nutsedge, Yellow ([16]; 125 g ai/ha) | Plant response rating, Nutsedge, Yellow ([16]; 250 g ai/ha) | Plant response rating (scale of 0 to 100), Waterhemp [17, 23] | Plant response rating, Waterhemp ([17]; 62 g ai/ha) | Plant response rating (scale of 0 to 100), Velvetleaf [20, 23] | Plant response rating (scale of 0 to 100), Corn [21, 23] | Plant response rating, Corn ([21]; 62 g ai/ha) | Plant response rating, Corn ([21]; 125 g ai/ha) | Plant response rating (scale of 0 to 100), Ragweed [22, 23]
35: Plant response rating, Ryegrass, Italian ([7]; 125 g ai/ha) | Plant response rating, Wheat ([15]; 125 g ai/ha) | Plant response rating, Velvetleaf ([20]; 62 g ai/ha)
5: Plant response rating (scale of 0 to 100), Wheat [15, 23]
60: Plant response rating, Galium ([1]; 62 g ai/ha) | Plant response rating, Galium ([1]; 125 g ai/ha) | Plant response rating, Johnsongrass ([6]; 250 g ai/ha)
40: Plant response rating, Galium ([1]; 31 g ai/ha) | Plant response rating, Lambsquarters ([13]; 62 g ai/ha) | Plant response rating, Lambsquarters ([13]; 125 g ai/ha)
100: Plant response rating, Soybean ([11]; 250 g ai/ha) | Plant response rating, Crabgrass, Large ([14]; 62 g ai/ha) | Plant response rating, Crabgrass, Large ([14]; 125 g ai/ha) | Plant response rating, Crabgrass, Large ([14]; 250 g ai/ha)
50: Plant response rating, Pigweed ([3]; 250 g ai/ha) | Plant response rating, Crabgrass, Large ([5]; 62 g ai/ha)
